Source: US20090264383A1, “Inhibitor of Adenylyl Cyclase for Treating a Disorder of the Circadian Rhythm” (Medical Research Council, priority 2006, published 2009)
Entries after “also recorded” stand apart in the source; their conditions may differ.

Legend:
[1] = Water solubility; format: physicochemical
[2] = test system: organotypic SCN slices; assay: Bioluminescence recording of circadian gene expression in organotypic SCN slices (mPer1::luc / PER2::LUC); format: cell-based, mice
Protocol: (§1) Per1::luciferase and; Per2-luc transgenic mice were used. For organotypic slice culture, brains were removed from pups 5-10 days old and sectioned at 300 um with a McIlwain “Tissue Chopper.” Slices were sorted and trimmed to contain principally SCN tissue and placed onto a Millipore membrane insert (PICMORG) for culture at 37° C. in 5% CO2 as described previously (Gainer et al, 1998).
Recordings of luciferase activity from organotypic slices of SCN or peripheral tissues were made from 5-7 day old pups from PER2::LUC and, Per1::LUC mice using either photomultiplier assemblies for whole tissue emission or CCD camera for single SCN cell imaging (Hamamatsu Photonics Ltd, U.K.) as described May Wood et al 2006 Curr. Biol. Vol. 16 pp 599-605. cAMP-ELISA kit was purchased from R&D systems (Wiesbaden, Germany). NIH 3T3 cells were cultured as described (Kume et al 1999 Cell Vol 98 pp 193-205) and transfected using Genejuice (Novagen, San Diego, Calif.). […] Drugs were solubilized in medium or dimethylsulfoxide (DMSO) to make stock solutions 50-1000× the working solutions. [DMSO] was never greater than 0.4%. RNA-interference against Epac1 and Epac 2 used pre-validated sequences as instructed (Validated Stealth RNAi, Invitrogen, CA). Western Blots were performed as Reddy et al (2006 Curr. Biol. Vol 16 oo 1107-15). Behavioural rhythms, recorded by running wheel and passive infra-red movement detectors, were analysed in Clocklab (Actimetrics, Evanston Ill.). Central cannulae directed stereotaxically at the SCN and sub-cutaneous minipumps (Alzet® model 1002 pump and brain infusion kit II) for drug infusion were fitted as instructed (Durect Corp. Cupertino, Calif.).
Statistical analysis was performed using Prism GraphPad™ and Statview™. Periods were calculated over ≧3 days recoding For comparative purposes, transcriptional amplitude from PMT recordings was calculated as 100× (post-treatment emission peak-trough/pre-treatment peak-trough). In all cases error bars indicate SEM about the mean where n≧3.

[3] = compared with THFA; cited from earlier work
[4] = target: T1, inositol monophosphatase (Homo sapiens, UniProt P29218); details: cited from earlier work
T1 sequence (P29218 1-277): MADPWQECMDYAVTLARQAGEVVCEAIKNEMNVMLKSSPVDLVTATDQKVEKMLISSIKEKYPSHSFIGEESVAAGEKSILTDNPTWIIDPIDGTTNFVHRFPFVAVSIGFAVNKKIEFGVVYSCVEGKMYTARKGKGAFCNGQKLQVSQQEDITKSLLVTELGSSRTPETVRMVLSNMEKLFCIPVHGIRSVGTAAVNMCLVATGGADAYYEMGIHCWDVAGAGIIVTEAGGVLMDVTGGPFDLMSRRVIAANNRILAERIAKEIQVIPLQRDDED

[5] = 1 mM lithium final concentration in human serum; cited from earlier work
[6] = target: T2, bisphosphate nucleotidase (Homo sapiens, UniProt O95861); details: cited from earlier work
T2 sequence (O95861 1-308): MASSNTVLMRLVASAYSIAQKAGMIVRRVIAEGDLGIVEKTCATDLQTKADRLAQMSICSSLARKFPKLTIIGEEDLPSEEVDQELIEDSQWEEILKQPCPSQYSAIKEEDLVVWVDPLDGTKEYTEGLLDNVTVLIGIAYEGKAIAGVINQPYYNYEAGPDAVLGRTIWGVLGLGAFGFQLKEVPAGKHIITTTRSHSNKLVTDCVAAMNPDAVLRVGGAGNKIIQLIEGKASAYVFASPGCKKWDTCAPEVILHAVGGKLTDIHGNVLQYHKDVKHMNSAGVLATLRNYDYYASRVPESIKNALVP

[7] = test system: Slices/3T3 cells/other tissues; details: 10 mM LiCl2 (slices); 2 mM THFA (slices/3T3 cells/other tissues)
Protocol: as §1

[8] = target: T3, inositol polyphosphate 1-phosphatase (Homo sapiens, UniProt P49441); details: cited from earlier work
T3 sequence (P49441 1-399): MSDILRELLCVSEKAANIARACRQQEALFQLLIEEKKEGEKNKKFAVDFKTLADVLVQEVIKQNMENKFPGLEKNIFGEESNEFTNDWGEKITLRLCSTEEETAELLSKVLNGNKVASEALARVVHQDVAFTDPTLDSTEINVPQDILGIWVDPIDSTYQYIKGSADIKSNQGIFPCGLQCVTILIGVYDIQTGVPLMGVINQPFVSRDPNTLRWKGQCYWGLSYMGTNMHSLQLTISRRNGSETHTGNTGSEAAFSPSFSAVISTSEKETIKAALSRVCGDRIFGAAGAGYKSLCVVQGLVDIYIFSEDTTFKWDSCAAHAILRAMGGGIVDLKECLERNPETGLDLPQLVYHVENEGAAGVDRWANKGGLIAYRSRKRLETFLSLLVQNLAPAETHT

Nc1ncnc2c1ncn2C1CCCC1 [9-(cyclopentyl)-adenine, 9-(Cyclopentyl)-adenine]
water solubility [1]: water soluble
solubility ([1]; water, read-out: water soluble up to): ≥ 125 mM
effect on circadian period ([2]; wild-type mPer1::luc / PER2::LUC SCN slices): Reversible period lengthening; also recorded: Period was lengthened
metabolic and chemical stability [3]: greater metabolic and chemical stability than THFA

[Li] [Lithium]
EC50 [4]: < 2000 µM
increase in SCN period in vitro ([2]; 10 mM lithium): 2 to 3 h
circadian period ([2]; lithium treatment, organotypic slices, concentration not given): approximately 26 hours
increase in circadian period ([2]; lithium, organotypic tissue extracts): ~2 h
circadian period ([2]; slices in 10 mM lithium): 26 h
toxicity [5]: non-toxic
EC50 [6]: < 2000 µM
appearance of slices / cells / tissues [7]: appear perfectly healthy
EC50 [8]: < 2000 µM
